# Article PMC8333425, “Discovery of a dual Ras and ARF6 inhibitor from a GPCR endocytosis screen” (Nature Communications, 2021)
# Test system: Ras
# Assay: Ras BRET sensor (Raf1-RBD-RlucII / rGFP-CAAX), AT1R-mediated
# Format: cell-based, human
# Excerpt: Since 21 inhibited both ERK1/2 and Akt activation by GPCRs and EGFR, we looked at a common target involved in both pathways. The small G protein Ras is an upstream regulator of both Ras-RAF-MEK-ERK and PI3K/Akt signaling pathways[35],[36]. Therefore, we explored 21’s ability to inhibit Ras activity using GST-Raf1-Ras-binding domain (RBD) in a pull-down assay. A reduction of 60% in GTP-bound Ras was noticed in pulled-down from cells treated with 21 and stimulated with either AT1R or EGFR, as compared to vehicle-treated cells (Fig. 4a, b). Complementary to this in vitro assay, we generated a Ras BRET assay, using the Raf-Ras binding domain tagged with RlucII (Raf1-RBD-RlucII) and the rGFP at the PM (rGFP-CAAX) (Supplementary Fig. 3c), to assess 21’s effects on Ras activation kinetics. […] Overexpression of either the active form of Ras (G12V) or SOS1 anchored at the PM (SOS-CAAX) produced a robust basal BRET signal that was no longer modulated by receptor activation (Supplementary Fig. 3d). […] 21’s potency to inhibit ARF6 and Ras is also consistent with its relative efficacy for inhibiting AT1R internalization and MAPK, respectively, when used at 50 μM (e.g., around 7 and 70 times the respective IC50s) (Figs. 2e and 3a). We also assessed if 21 was acting as a pan small G protein inhibitor by testing its effect on Rho and Rac/Cdc42. […] To assess Rac/Cdc42 activity, we generated a Rac/Cdc42 BRET sensor that consisted of the PAK-CRIB domain fused to RlucII (PAK-CRIB-RlucII) and the rGFP-CAAX (Supplementary Fig. 3e). PAK-CRIB, which binds to active Rac/Cdc42, was recruited to the PM upon AngII stimulation of cells and generated a robust BRET signal, which was blocked by the overexpression of the DN Rac1-T17N. Overexpression of the constitutively active Rac1-Q61L increased the basal BRET, which was no longer modulated by AT1R stimulation (Supplementary Fig. 3f).
# HEK293SL cells were seeded at a density of 7.5 × 10^5 cells per 100-mm dish and 24 h later, transiently transfected as such. For receptor internalization experiments, cells were transfected with 0.12 μg AT1R-RlucII, B2R-RlucII, or β2AR-RlucII and 0.48 μg of either rGFP-CAAX (to assess removal from the PM) or rGFP-FYVE (to assess accumulation in the endosomes). For β-arrestin recruitment assays, cells were transfected with 0.48 μg of receptor-YFP along with 0.12 μg of β-arrestin-RlucII. For β-arrestin/AP-2 binding experiments, cells were transfected with 1 μg Flag-AT1R, 1 μg β2-Adaptin-YFP, and 0.12 μg β-arrestin2-RlucII. For G protein activation, cells were transfected with 3 μg of sp-Flag-AT1R along with either 4.5 μg of the Gαq-polycistronic BRET sensor or 0.24 μg of the Gαi3-RlucII and 0.6 μg of GFP10-Gγ2 and Gβ1 sensors or 0.12 μg PKN-RBD-RlucII and 0.48 μg of rGFP-CAAX. For PKC activation, cells were transfected with 3 μg of sp-Flag-AT1R and 0.18 μg of the PKC sensor. For GTPase activation experiments, cells were transfected with 1 μg Flag-AT1R, 0.48 μg of rGFP-CAAX, and either 0.12 μg of GGA3-PBD-RlucII, PAK-CRIB-RlucII or Raf-RBD-RlucII. For biosensor validation experiments, cells were additionally transfected with 500 ng Flag-K-Ras-WT, Flag-K-Ras-G12V, Flag-K-Ras-SOS-CAAX, HA-ARF6-WT, HA-ARF6-T27N, Myc-Rac1-WT, Myc-Rac1-Q61L or Myc-Rac1-T17N. For PI3K/Akt activation experiments, cells were transfected with 0.48 μg of rGFP-CAAX and 0.12 μg of Akt (PH)-RlucII. After 18 h of transfection, the media was replaced and cells were divided for subsequent experiments. Cells were detached and seeded onto poly-L-ornithine-coated 96-well flat white bottom plates (BrandTech Scientific) at a density of 2.5 × 10^4 cells per well in media. The next day, cells were washed once with Tyrode’s buffer (140 mM NaCl, 2.7 mM KCl, 1 mM CaCl2, 12 mM NaHCO3, 5.6 mM D-glucose, 0.5 mM MgCl2, 0.37 mM NaH2PO4, 25 mM HEPES, pH 7.4) and left in Tyrode’s buffer. […]
compound,measurement,setting,value
CC(C)C(=O)N1CCN(c2ccc(NC(=O)c3cc4ccccc4o3)cc2Cl)CC1 [Compound 21],decrease of Ras activation following AT1R stimulation (Ras BRET assay),50 μM,50–70%
same,IC50,"AT1R, dose-response",0.7 µM
same,"Ras BRET sensor signal (Fig.4c), single experiments","Comp 21 50 μM, Time 0 min",0
same,Ras MEAN (Fig.4d),Log [Comp 21] (M) -4,16.3196
same,Ras MEAN (Fig.4d),Log [Comp21] (M) -4.3,30.5907
same,Ras MEAN (Fig.4d),Log [Comp21] (M) -5,29.6351
same,Ras MEAN (Fig.4d),Log [Comp21] (M) -5.3,36.1989
same,Ras MEAN (Fig.4d),Log [Comp 21] (M) -6,54.1758
same,Ras MEAN (Fig.4d),Log [Comp21] (M) -6.3,74.1367
same,Ras MEAN (Fig.4d),Log [Comp 21] (M) -7,95.616
